# Test results as given in ChEMBL document CHEMBL3885861, “Open TG-GATES”.
# Organism: Rattus norvegicus
# Assay: Open TG-GATES - Regimen: Single
# Type: toxicity, organism-based, Sprague-Dawley
# Set-up: regimen Single, gender Male, age 6 weeks
# Settings: in vivo, po, 150 mg/kg, route gavage, dose level High; for APTT / Bas / Eos / Fbg / Hb / Ht / Lym / MCH / MCHC / MCV / Mono / Neu / PT / Plat / RBC / Ret / WBC: tissue Blood; for KIDNEY_L / KIDNEY_R / KIDNEY_TOTAL: tissue Kidney; for LIVER: tissue Liver; for A/G / ALP / ALT / AST / BUN / CRE / Ca / Cl / DBIL / GLC / IP / K / LDH / Na / PL / RALB / TBIL / TC / TG / TP / gamma-GTP: tissue Plasma
structure (smiles),measurement,setting,value
CC(C)C(=O)Nc1ccc([N+](=O)[O-])c(C(F)(F)F)c1 [FLUTAMIDE],TERMINAL_BW,9 h,207.4 g
same,APTT,9 h,19.7 s
same,Bas,9 h,0%
same,Eos,9 h,0.8%
same,Fbg,9 h,223.8 mg/dL
same,Hb,9 h,13.1 g/dL
same,Ht,9 h,38.5%
same,Lym,9 h,77.4%
same,MCH,9 h,21.6 pg
same,MCHC,9 h,34%
same,MCV,9 h,63.5 fL
same,Mono,9 h,3.8%
same,Neu,9 h,17%
same,PT,9 h,12.8 s
same,Plat,9 h,127.2 x10_4/uL
same,RBC,9 h,605.6 x10_4/ul
same,Ret,9 h,7.7%
same,WBC,9 h,69.1 x10_2/uL
same,KIDNEY_L,9 h,0.9 g
same,KIDNEY_R,9 h,0.9 g
same,KIDNEY_TOTAL,9 h,1.8 g
same,LIVER,9 h,8.7 g
same,A/G,9 h,1.6
same,ALP,9 h,711.8 IU/L
same,ALT,9 h,29.2 IU/L
same,AST,9 h,57.6 IU/L
same,BUN,9 h,10.2 mg/dL
same,CRE,9 h,0.4 mg/dL
same,Ca,9 h,10.5 mg/dL
same,Cl,9 h,102.8 meq/L
same,DBIL,9 h,0.07 mg/dL
same,GLC,9 h,220.6 mg/dL
same,IP,9 h,9.1 mg/dL
same,K,9 h,3.8 meq/L
same,LDH,9 h,149.4 IU/L
same,Na,9 h,139.8 meq/L
same,PL,9 h,165.4 mg/dL
same,RALB,9 h,3.4 g/dL
same,TBIL,9 h,0.1 mg/dL
same,TC,9 h,89.6 mg/dL
same,TG,9 h,73 mg/dL
same,TP,9 h,5.7 g/dL
same,gamma-GTP,9 h,0.8 IU/L
same,TERMINAL_BW,24 h,213.1 g
same,APTT,24 h,17.7 s
same,Bas,24 h,0%
same,Eos,24 h,1%
same,Fbg,24 h,218 mg/dL
same,Hb,24 h,13.1 g/dL
same,Ht,24 h,39.3%
same,Lym,24 h,82.4%
same,MCH,24 h,21.6 pg
same,MCHC,24 h,33.3%
same,MCV,24 h,65 fL
same,Mono,24 h,2.2%
same,Neu,24 h,13.6%
same,PT,24 h,12.8 s
same,Plat,24 h,129.1 x10_4/uL
same,RBC,24 h,605.4 x10_4/ul
same,Ret,24 h,6.8%
same,WBC,24 h,77.2 x10_2/uL
same,KIDNEY_L,24 h,1 g
same,KIDNEY_R,24 h,0.9 g
same,KIDNEY_TOTAL,24 h,1.9 g
same,LIVER,24 h,9.9 g
same,A/G,24 h,1.4
same,ALP,24 h,990.6 IU/L
same,ALT,24 h,32.6 IU/L
same,AST,24 h,69.6 IU/L
same,BUN,24 h,12.2 mg/dL
same,CRE,24 h,0.4 mg/dL
same,Ca,24 h,10.5 mg/dL
same,Cl,24 h,104.4 meq/L
same,DBIL,24 h,0.082 mg/dL
same,GLC,24 h,213 mg/dL
same,IP,24 h,7.5 mg/dL
same,K,24 h,3.8 meq/L
same,LDH,24 h,145.4 IU/L
same,Na,24 h,141.2 meq/L
same,PL,24 h,175.8 mg/dL
same,RALB,24 h,3.3 g/dL
same,TBIL,24 h,0.1 mg/dL
same,TC,24 h,107.4 mg/dL
same,TG,24 h,57.4 mg/dL
same,TP,24 h,5.7 g/dL
same,gamma-GTP,24 h,0.8 IU/L
